Literature values in US8530463B2, “Multimodal particulate formulations” (Hale Biopharma Ventures LLC, priority 2007, dated 2013).

Q: With `Cc1ncc2n1-c1ccc(Cl)cc1C(c1ccccc1F)=NC2` [Midazolam, 8-chloro-6-(2-fluorophenyl)-1-methyl-4H-imidazo[1,5-a]benzodiazepine] as the compound, how does the “solubility in most aqueous solutions” value (neutral pH (e.g. about 6 to 8)) read?
A: Its value is “relatively insoluble”.

Q: And the solubility in water (pH lower than about 4)?
A: Its solubility in water is “soluble”.
